Measured values reported in article PMC10971832, “New Phenol Derivatives from the Haima Cold Seep-Derived Fungus Aspergillus subversicolor CYH-17” (Marine Drugs, 2024).
Converted amounts (≈) assume the structure as drawn.

Assays:
[1] = DPPH radical scavenging assay (antioxidant activity); details: Table S33, positive control ascorbic acid
Text: The procedures of the DPPH radical scavenging test were the same as Zhong. Ascorbic acid was used as the positive control.

Bacillus subtilis BS01 = assay: Antibacterial assay (MIC), B. subtilis; assay type: cell-based; details: Table S32, positive control ciprofloxacin
Text: (§1) The bacteria Vibrio alginolyticus XSBZ14, Enterococcus faecalis ATCC 29212, Acinetobacter baumannii ATCC 19606, Escherichia coli ATCC 25922, Bacillus subtilis BS01, Klebsiella pneumoniae ATCC 13883, Exiguobacterium profundum Staphylococcus aureus ATCC 29213 and MRSA 107352 were used to measure antibacterial activity. The procedures of the antibacterial test were the same as Zhang. Ciprofloxacin was used as the positive control.

[2] = tested on: Exiguobacterium profundum; assay: Antibacterial assay (MIC), E. profundum; assay type: cell-based; details: Table S32, positive control ciprofloxacin
Text: as §1

[3] = tested on: Enterococcus faecalis ATCC 29212; assay: Antibacterial assay (MIC), E. faecalis; assay type: cell-based; details: ATCC29212, Table S32, positive control ciprofloxacin
Text: as §1

[4] = tested on: Acinetobacter baumannii ATCC 19606; assay: Antibacterial assay (MIC), A. baumannii; assay type: cell-based; details: ATCC19606, Table S32, positive control ciprofloxacin
Text: as §1

[5] = tested on: Staphylococcus aureus ATCC 29213; assay: Antibacterial assay (MIC), S. aureus; assay type: cell-based; details: ATCC29213, Table S32, positive control ciprofloxacin
Text: as §1

MRSA 107352 = assay: Antibacterial assay (MIC), MRSA; assay type: cell-based; details: Staphylococcus aureus, Table S32, positive control ciprofloxacin
Text: as §1

[6] = tested on: six bacteria (B. subtilis, E. profundum, E. faecalis, S. aureus, MRSA, A. baumannii); assay: Antibacterial assay, summary over the sensitive bacteria; assay type: cell-based
Text: as §1

## O=C1O[C@H]([C@@H](O)CO)C(O)=C1O [Ascorbic acid, reference compound]
[1]
  IC50: 16.7 ± 0.7 µM

## CCC(C)C=C(C)C=CC(=O)Cc1cc(O)c(C)c(O)c1C(=O)O (stereo not shown) [Compound 1, subversin A]
Bacillus subtilis BS01
  MIC: > 200 µM
[2]
  MIC: 100 µM (≈ 33.2 µg/mL)
[3]
  MIC: > 200 µM
[4]
  MIC: > 200 µM
[5]
  MIC: > 200 µM
MRSA 107352
  MIC: > 200 µM

## Cc1cc(O)cc2oc3cc(O)cc(C)c3c12 [Compound 10, 3,7-dihydroxy-1,9-dimethyldibenzofuran]
Bacillus subtilis BS01
  MIC: 0.1 µM (≈ 0.0228 µg/mL)
[2]
  MIC: 25 µM (≈ 5.71 µg/mL)
[3]
  MIC: 25 µM (≈ 5.71 µg/mL)
[4]
  MIC: 50 µM (≈ 11.4 µg/mL)
[5]
  MIC: 25 µM (≈ 5.71 µg/mL)
MRSA 107352
  MIC: 12.5 µM (≈ 2.85 µg/mL)
[1]
  IC50: 48.9 ± 9.8 µM
[6]; five Gram-positive bacteria (B. subtilis, E. profundum, E. faecalis, S. aureus and MRSA) and one Gram-negative bacterium (A. baumannii)
  inhibitory activity against bacteria (in words): displayed inhibitory activity
[6]; range over six inhibited bacteria
  MIC: 0.1 to 50 µM (≈ 0.0228 to 11.4 µg/mL)

## COc1c(O)cc(C)cc1Oc1cc(C)cc(O)c1 [Compound 11, 2-methoxyl cordyol C]
Bacillus subtilis BS01
  MIC: > 200 µM
[2]
  MIC: 100 µM (≈ 26 µg/mL)
[3]
  MIC: > 200 µM
[4]
  MIC: > 200 µM
[5]
  MIC: > 200 µM
MRSA 107352
  MIC: > 200 µM

## O=C(O)c1cn(C2CC2)c2cc(N3CCNCC3)c(F)cc2c1=O [ciprofloxacin, Ciprofloxacin, reference compound]
Bacillus subtilis BS01
  MIC: 0.03 µM (≈ 0.00994 µg/mL)
[2]
  MIC: 0.2 µM (≈ 0.0663 µg/mL)
[3]
  MIC: 0.8 µM (≈ 0.265 µg/mL)
[4]
  MIC: 0.4 µM (≈ 0.133 µg/mL)
[5]
  MIC: 0.8 µM (≈ 0.265 µg/mL)
MRSA 107352
  MIC: 1.6 µM (≈ 0.53 µg/mL)
